# Assay results published in article PMC6199744, “Development of Chemical Proteomics for the Folateome and Analysis of the Kinetoplastid Folateome” (ACS Infectious Diseases, 2018).
# Where “and” joins values, the source holds several entries; their conditions need not be identical. Equal values may be shown once. Read-outs that look alike come from different tables or passages of the source.
# System: L. major lysate proteins
# Assay: Multitargeted bead mixture chemoproteomics, single concentration competition, proteome-wide
# Type: binding
# Conditions: for fold change / fold change relative to vehicle control: vehicle control = 1; for fold change relative to vehicle control: competition with free ligand
compound,measurement,setting,value
CCCCCCOc1cccc(Cc2cnc(N)nc2N)c1 [compound 2],fold change vs vehicle control,,1.17 and 1.18 and 1.07 and 1.04
same,fold change,LINJ.05.0500 ATPASE ALPHA SUBUNIT,1.11
same,fold change,LINJ.36.4570 PROTEASOME REGULATORY ATPASE SUBUNIT,0.65
same,fold change,"LMJF.10.0510 GLYCEROL-3-PHOSPHATE DEH[…] ], GLYCOSOMAL",1.02
same,fold change,LMJF.16.1610 PROHIBITIN,1.14
same,fold change,"LMJF.18.1370 HEAT SHOCK PROTEIN, PUTATIVE",1.03
same,fold change,"LMJF.19.0300 RNA BINDING PROTEIN, PUTATIVE",0.93
same,fold change,"LMJF.21.0760 […]-ATP-ASE SUBUNIT 5, PUTATIVE",0.91
same,fold change,"LMJF.22.0410 HY[…], CONSERVED",0.85
same,fold change,"LMJF.25.1770 ENOYL-COA REDUCTASE, PUTATIVE",1.1
same,fold change,LMJF.26.0300 AMINOPEPTIDASE-LIKE PROTEIN,0.85
same,fold change,"LMJF.26.2560 HY[…], CONSERVED",1.08
same,fold change,"LMJF.27.1810 GLYCOSOMAL PHOSPHOENOLPYRUVATE CARBOXYKINASE, PUTATIVE",1.17
same,fold change,"LMJF.28.0490 PROPIONYL-COA CARBOXYLASE BETA CHAIN, PUTATIVE",0.63
same,fold change,"LMJF.29.0940 HY[…], CONSERVED",1.21
same,fold change,"LMJF.29.1310 CARNITINE/CHOLINE ACETYLTRANSFERASE, PUTATIVE",1.04
same,fold change,"LMJF.29.1470 HY[…], CONSERVED",1.11
same,fold change,"LMJF.29.2440 HYPOTHETICAL PROTEIN, CONSERVED",1
same,fold change,LMJF.30.2350 SPHINGOSINE 1-PHOSPHATE LYASE,1.12
same,fold change,"LMJF.30.2970 GLYCERALDEHYDE 3-PHOSPHATE DEHYDROGENASE, GLYCOSOMAL",1.11
same,fold change,"LMJF.30.3390 CAS/CSE/IMPORTIN DOMAIN PROTEIN, PUTATIVE",0.9
same,fold change,LMJF.31.2650 ACETOIN DEHYDROGENASE E3 COMPONENT-LIKE PROTEIN,1.02
same,fold change,"LMJF.31.2970 ACETYL-COA CARBOXYLASE, PUTATIVE",0.91
same,fold change,"LMJF.33.1030 HYPOTHETICAL PROTEIN, CONSERVED",0.95
same,fold change,LMJF.35.5040 polyadenylate-binding protein 1,1.22
same,fold change,"LMJF.35.5250 ALPHA-1,2-MANNOSYLTRANSFERASE, PUTATIVE",0.99
same,fold change,"LMJF.36.5100 HY[…], CONSERVED",1.03
same,fold change,"LMJF.[…] RIBOSOMAL PROTEIN S7, PUTATIVE",1.35
same,fold change vs vehicle control,"protein LINJ.03.0940 HY[…], CONSERVED",1.19
same,fold change vs vehicle control,"protein LINJ.09.0030 HYPOTHETICAL PROTEIN, CONSERVED",0.91
same,fold change relative to vehicle control,"protein LINJ.11.0780 40S RIBOSOMAL PROTEIN S21, PUTATIVE",1.25
same,fold change,"protein LINJ.13.0990 […] SUBUNIT 2, PUTATIVE",1.04
same,fold change vs vehicle control,protein LINJ.13.1460 ALPHA TUBULIN,1.06
same,fold change,"protein LINJ.15.0090 HEAT SHOCK PROTEIN HSLVU, ATPASE SUBUNIT HSLU, PUTATIVE",1.01
same,fold change relative to vehicle control,"protein LINJ.16.1380 CYTOCHROME C, PUTATIVE",1.41
same,fold change vs vehicle control,protein LINJ.19.0300 RNA BINDING PROTEIN,1.2
same,fold change,"protein LINJ.20.0630 CYTIDINE TR[…], PUTATIVE",1.24
same,fold change relative to vehicle control,"protein LINJ.20.1390 COATOMER BETA SUBUNIT, PUTATIVE",1.31
same,fold change vs vehicle control,"protein LINJ.21.1310 40S RIBOSOMAL PROTEIN S23, PUTATIVE",1.12
same,fold change vs vehicle control,"protein LINJ.23.1680 HY[…], CONSERVED",1.11
same,fold change vs vehicle control,"protein LINJ.25.1170 […] OXIDASE VII, PUTATIVE",1.03
same,fold change relative to vehicle control,protein LINJ.25.1220 RIBOSOMAL PROTEIN S25,1.24
same,fold change vs vehicle control,"protein LINJ.26.1080 HY[…], CONSERVED",1.11
same,fold change vs vehicle control,"protein LINJ.27.1140 HY[…], CONSERVED",1.05
same,fold change vs vehicle control,"protein LINJ.28.1100 RIBOSOMAL PROTEIN S20, PUTATIVE",1.04
same,fold change relative to vehicle control,"protein LINJ.28.1940 REPLICATION FACTOR A, 51KDA SUBUNIT, PUTATIVE",1.28
same,fold change,"protein LINJ.31.2350 ADP-RI[…], PUTATIVE",1.11
same,fold change vs vehicle control,"protein LINJ.34.0670 […]-ATP-ASE SUBUNIT 11, PUTATIVE",1.17
same,fold change,"protein LINJ.35.0410 40S RIBOSOMAL PROTEIN S3A, PUTATIVE",1.2
same,fold change relative to vehicle control,"protein LINJ.35.0780 CBS DOMAIN PROTEIN, CONSERVED",0.96
same,fold change vs vehicle control,"protein LINJ.36.0510 HY[…], CONSERVED",1.08
same,fold change vs vehicle control,"protein LINJ.36.3940 40S RIBOSOMAL PROTEIN S27-1, PUTATIVE",0.95
same,fold change,protein LINJ.36.4180 HS1VU COMPLEX PROTEOLYTIC SUBUNIT-LIKE,0.97
same,fold change,protein LINJ.36.7350 […] OXIDASE SUBUNIT I,1.03
same,fold change,"protein LMJF.01.0520 LONG-CHAIN-FATTY-ACID-COA LIGASE, PUTATIVE",0.98
same,fold change vs vehicle control,"protein LMJF.02.0460 HY[…], CONSERVED",1.06
same,fold change vs vehicle control,"protein LMJF.03.0230 LONG CHAIN FATTY ACYL COA SYNTHETASE, PUTATIVE",1.18
same,fold change vs vehicle control,"protein LMJF.03.0630 HYPOTHETICAL PROTEIN, CONSERVED",1
same,fold change,"protein LMJF.05.0780 HY[…], CONSERVED",1.13
same,fold change,protein LMJF.06.0010 HISTONE H4,1.16
same,fold change,"protein LMJF.06.0140 PROTEASOME BETA 6 SUBUNIT, PUTATIVE",0.93
same,fold change,"protein LMJF.06.0650 […], PUTATIVE",1.08
same,fold change vs vehicle control,"protein LMJF.08.0510 RIBOSE-PHOSPHATE PYROPHOSPHOKINASE, PUTATIVE",1.01
same,fold change vs vehicle control,protein LMJF.08.0550 TRANSLATION INITIATION FACTOR-LIKE PROTEIN,1.1
same,fold change vs vehicle control,"protein LMJF.08.1100 HY[…], CONSERVED",1.08
same,fold change relative to vehicle control,"protein LMJF.09.1120 MITOCHONDRIAL RNA BINDING PROTEIN 2,MRP2, GBP25",1
same,fold change vs vehicle control,"protein LMJF.09.1260 HY[…], CONSERVED",1.11
same,fold change,protein LMJF.10.1010 NUCLEOSIDE PHOSPHORYLASE-LIKE PROTEIN,0.94
same,fold change,"protein LMJF.10.1240 HYPOTHETICAL PROTEIN, CONSERVED",0.79
same,fold change vs vehicle control,protein LMJF.11.0130 NGG1 I[…] 3-LIKE PROTEIN,1.06
same,fold change vs vehicle control,"protein LMJF.11.0240 […] 7 SUBUNIT, PUTATIVE",1.02
same,fold change,"protein LMJF.11.1050 PRETRA[…], ALPHA SUBUNIT, PUTATIVE",1.27
same,fold change vs vehicle control,"protein LMJF.11.1110 60S RIBOSOMAL PROTEIN L28, PUTATIVE",1.71
same,fold change vs vehicle control,"protein LMJF.12.0210 […] […]1L8 3, PUTATIVE",0.96
same,fold change vs vehicle control,"protein LMJF.12.0280 ORNITHINE DECARBOXYLASE, PUTATIVE",0.92
same,fold change vs vehicle control,"protein LMJF.13.0450 HYPOTHETICAL PROTEIN, CONSERVED",0.94
same,fold change vs vehicle control,"protein LMJF.13.0870 MIT[…] ALPHA SUBUNIT, PUTATIVE",1.12
same,fold change vs vehicle control,"protein LMJF.14.0130 INOSINE-GUANINE NUCLEOSIDE HYDROLASE, PUTATIVE",1
same,fold change,"protein LMJF.14.0310 PROTEASOME ALPHA 3 SUBUNIT, PUTATIVE",0.96
same,fold change,"protein LMJF.14.0650 FATTY ACID ELONGASE, PUTATIVE",1.09
same,fold change,"protein LMJF.14.0660 FATTY ACID ELONGASE, PUTATIVE",1.14
same,fold change,"protein LMJF.14.0705 FATTY ACID ELONGASE, PUTATIVE",0.94
same,fold change,"protein LMJF.14.0740 FATTY ACID ELONGASE, PUTATIVE",1.13
same,fold change relative to vehicle control,"protein LMJF.14.1120 KINESIN K39, PUTATIVE",1.12
same,fold change vs vehicle control,"protein LMJF.15.0230 LYSYL-TRNA SYNTHETASE, PUTATIVE",1.06
same,fold change vs vehicle control,"protein LMJF.15.0280 RIBONUCLEOPROTEIN P18, MIT[…], PUTATIVE",1.12
same,fold change,protein LMJF.15.1010 GLUTAMATE DEHYDROGENASE,1.12
same,fold change relative to vehicle control,"protein LMJF.16.0520 HYPOTHETICAL PROTEIN, CONSERVED",2.05
same,fold change,"protein LMJF.16.0540 ASPARTATE […], PUTATIVE",1.05
same,fold change vs vehicle control,protein LMJF.16.0950 SUCROSE-PHOSPHATE SYNTHASE-LIKE PROTEIN,1.27
same,fold change vs vehicle control,"protein LMJF.16.0960 HYPOTHETICAL PROTEIN, CONSERVED",0.64
same,fold change,protein LMJF.16.1180 COATOMER DELTA SUBUNIT-LIKE PROTEIN,1.05
same,fold change,"protein LMJF.17.0010 HYPOTHETICAL PROTEIN, CONSERVED",0.79
same,fold change vs vehicle control,"protein LMJF.18.0510 ACONITASE, PUTATIVE",1.1
same,fold change vs vehicle control,"protein LMJF.18.0890 RAB7 GTP BINDING PROTEIN, PUTATIVE",0.93
same,fold change,"protein LMJF.18.1130 RAS-RELATED PROTEIN RAB-5, PUTATIVE",0.97
same,fold change,"protein LMJF.19.1120 […]-ATP-ASE SUBUNIT, PUTATIVE",1.02
same,fold change vs vehicle control,"protein LMJF.19.1160 HY[…], CONSERVED",1.14
same,fold change vs vehicle control,protein LMJF.19.1530 PEPT[…]-LIKE PROTEIN,1.05
same,fold change,"protein LMJF.20.0100 PHOSPH[…] C, GLYCOSOMAL",1.08
same,fold change vs vehicle control,"protein LMJF.21.0720 HY[…], CONSERVED",1.29
same,fold change,"protein LMJF.21.1250 ADENYLATE KINASE, PUTATIVE",0.9
same,fold change,"protein LMJF.21.1555 HY[…], CONSERVED",1.14
same,fold change,"protein LMJF.21.1580 HY[…], UNKNOWN FUNCTION",1.22
same,fold change vs vehicle control,"protein LMJF.21.1700 […] 2 SUBUNIT, PUTATIVE",1.01
same,fold change,"protein LMJF.22.0230 AMINO ACID PERMEASE, PUTATIVE",1.51
same,fold change,"protein LMJF.22.0570 PROTEASOME REGULATORY ATPASE SUBUNIT 1, PUTATIVE",1.1
